# From patent US20230255955A1, “AMELIORATING AGENT OR PROPHYLACTIC AGENT FOR MUSCLE WEAKNESS SYMPTOM IN DISEASE OR SYNDROME ASSOCIATED WITH METABOLIC DISORDER” (Toray Industries, Inc., priority 2020, published 2023)
# Where a name gives a salt, the structure may show the parent alone.
# How the values were obtained:
# cancer cachexia patients = conditions: cited from earlier work
# [1] = tested on: malignant tumor model animals obtained by transplanting A549 cells to nude mice; experiment: Gripping force of the forelimb (grip test activity meter) in malignant tumor model; assay type: in vivo, mouse; conditions: oral, every day for 28 days, 0.125 mg/kg and 0.25 mg/kg (both doses), 28th day
# Description: (§1) On malignant tumor model animals obtained by transplanting A549 cells, adenocarcinomic human alveolar basal epithelial cells, to nude mice, an ameliorating action on a muscle weakness by administering (−)-17-(cyclopropylmethyl)-3,14β-dihydroxy-4,5α-epoxy-6β-[N-methyl-trans-3-(3-furyl)acrylamide]morphinan hydrochloride (hereinafter, compound 1) produced in accordance with International Publication No. WO 93/015081 was evaluated. […] For this reason, an evaluation of an ameliorating effect and a prophylactic effect on the muscle weakness symptom is considered to be possible.
# (§2) A549 cell subculture was carried out using 10% FBS-containing RPMI 1640 medium. For an evaluation of drug efficacy, 7-week old female BALB/C slc/nu/nu mice (Japan SLC, Inc.) were purchased, acclimated for 1 week and then used. The malignant tumor model animal was created as follows. […] The tumor volume was determined by measuring a tumor diameter using a digital vernier caliper by the following calculating formula. […]
# (§3) 43rd to 70th days from cell transplantation, compound 1 was orally administered every day to the malignant tumor model animals for 28 days. […] Using a grip test activity meter (Muromachi Kikai Co., Ltd.), a muscle strength was evaluated by measuring a gripping force of the forelimb on 28th day after starting administration of compound 1 (last day of the administration). […]
# SAMP8 mice = experiment: Gripping force of the forelimb (grip test activity meter) in senescence-accelerated model; assay type: in vivo, mouse; conditions: oral, every day for 28 days, 0.125 mg/kg and 0.25 mg/kg (both doses), 28th day, vs distilled water administered group, Williams' test P<0.05
# Description: as §1, with “senescence-accelerated models, SAMP8” for “malignant tumor model animals obtained by transplanting A549 cells, adenocarcinomic human alveolar basal epithelial cells, to nude”, “(compound” for “(hereinafter, compound”
# For the evaluation of drug efficacy, 7-week old male SAMP8/TaSlc mice (Japan SLC, Inc.) were purchased, then kept for 9 months and used for the test. For the total of 3 days from 3 days to 1 day before administration of the test substance, a gripping force of the forelimb was measured using a grip test activity meter, an average value of the 3 days was calculated, and then the mice were grouped in such a way that the average of muscle strengths in each group was equal. To clarify that the model is a muscle weakness model, a control of a senescence-accelerated model animal was set. […]
# Compound 1 was orally administered to SAMP8 mice every day for 28 days. […] Using a grip test activity meter, the muscle strength was evaluated by measuring a gripping force of the forelimb on 28th day after starting administration of compound 1 (last day of the administration). […]
# A549 cells = experiment: Tumor volume in malignant tumor model (A549 cells transplanted to nude mice); assay type: in vivo, mouse; conditions: oral, every day for 28 days, 0.125 mg/kg and 0.25 mg/kg (both doses); tumor volume on 28th day; vs distilled water administered group
# Description: as §1, §2, §3
Compound,ameliorating action on a muscle weakness symptom (physical function) (cancer cachexia patients),lean body mass (cancer cachexia patients),gripping force (muscle strength) compared with the model control group [1],"increasing action on the gripping force (muscle strength) ([1]; vs distilled water administered group, Dunnett's test P<0.05)",increasing action on the gripping force (muscle strength) (SAMP8 mice),suppressing action on the tumor volume increase (A549 cells)
CN(C)N(C)C(=O)[C@@]1(Cc2ccccc2)CCCN(C(=O)[C@@H](Cc2c[nH]c3ccccc23)NC(=O)C(C)(C)N)C1 [Anamorelin],does not show an ameliorating action on a muscle weakness symptom,increases a lean body mass,–,–,–,–
"CN(C(=O)/C=C/c1ccoc1)[C@@H]1CC[C@@]2(O)[C@H]3Cc4ccc(O)c5c4[C@@]2(CCN3CC2CC2)[C@H]1O5 [compound 1, (−)-17-(cyclopropylmethyl)-3,14β-dihydroxy-4,5α-epoxy-6β-[N-methyl-trans-3-(3-furyl)acrylamide]morphinan hydrochloride]",–,–,ameliorated to the extent that is equal to the gripping force (muscle strength) of the model control group,statistically remarkable increasing action on the gripping force (muscle strength),statistically remarkable increasing action on the gripping force (muscle strength),did not show any suppressing action on the tumor volume increase
C[C@](O)(COc1ccc(C#N)cc1)C(=O)Nc1ccc(C#N)c(C(F)(F)F)c1 [enobosarm],the effect thereof is not acknowledged,increases a lean body mass,–,–,–,–
